From US10189856B2 (Adverio Pharma GMBH, priority 2010, dated 2019)
Entries after “also recorded” stand apart in the source; their conditions may differ.

Columns and labels:
[1] = test system: Bleomycin-induced skin fibrosis; assay: Bleomycin-induced skin fibrosis, preventive dose-regimen (Example A); format: in vivo, mice; conditions: for Collagen content / Myofibroblast count / Dermal thickness: Table 2; for Collagen content: bleomycin + vehicle 1.56; for Myofibroblast count: bleomycin + vehicle 3.86; for Dermal thickness: vs vehicle-treated control, bleomycin + vehicle 1.71; for dermal thickness, hydroxyproline content of the skin and the number of dermal myofibroblasts: result in words, bleomycin-induced SSc in mice, preventive dose-regimen
Description: Local skin fibrosis was induced in 6-week-old, pathogen-free, female DBA/2 mice (Charles River, Sulzfeld, Germany) by repeated (every other day) subcutaneous injections of bleomycin (0.5 mg/ml in saline) in a defined area of the upper back. Control mice were injected in the same manner with saline only and served as reference. For all groups the injection volume was 100 μl. Concomitant to bleomycin treatment, the mice were treated orally with test drug or vehicle. Mice were treated a) with vehicle b) with 1 mg/kg compound of formula 27, and c) with 3 mg/kg compound of formula 27, twice a day via gavage for 21 days. After this 3 weeks treatment period, the animals were sacrificed and skin samples were obtained for analysis.
The injected skin areas were fixed in 4% formalin and embedded in paraffin. Histological sections were stained with hematoxylin and eosin for the determination of dermal thickness. The dermal thickness was determined by measuring the largest distance between the epidermal-dermal junction and the dermal-subcutaneous fat junction. The measurements were performed by an examiner blinded to the treatment of the mice.
To analyze the collagen content in skin samples, hydroxyproline assay was performed. After digestion of punch biopsies (Ø 3 mm) in 6M HCl for three hours at 120° C., chloramine T (0.06 M) was added and samples were mixed and incubated for 20 min at room temperature. 3.15 M perchloric acid and 20% p-dimethylaminobenzaldehyde were added and samples were incubated for additional 20 min at 60° C. The absorbance was determined at 557 nm.
The expression of α-smooth muscle actin (αSMA) was analyzed in paraffin embedded sections. After deparaffinization, samples were incubated with 3% bovine serum albumin followed by incubation with 3% H2O2. αSMA positive cells in mouse sections were detected by incubation with monoclonal anti-αSMA antibodies (clone 1A4, Sigma-Aldrich, Steinheim, Germany). Irrelevant isotype antibodies in the same concentration were used for control (Santa Cruz Biotechnology, Santa Cruz, Calif., USA). Antibodies labeled with horseradish peroxidase (Dako, Hamburg, Germany) were used as secondary antibodies. The expression of the NICD and αSMA was visualized with DAB peroxidase substrate solution (Sigma-Aldrich). The number of myofibroblasts was counted from 4 different sections of lesional skin for each mouse by an examiner blinded to the treatment of the mice.

[2] = test system: conscious mice; assay: Haemodynamic effects in conscious mice with telemetric implants (Example D); format: in vivo; conditions: result in words, dosages with antifibrotic properties
Description: The haemodynamic effects of i.e. example, the compound of formula 3, the compound of formula 4, the compound of formula 6 were analyzed in conscious mice. Telemetric implants (DSI®) were used. Signals were received with RMC1-DSI® receiver plates, compiled and analyzed with PONEMAH® physiology platform software.
The mice received either placebo (tylose), 0.3 mg/kg the compound of formula 27, 1 mg/kg the compound of formula 27, 3 mg/kg the compound of formula 27 (FIG. 1), 1.0 mg/kg the compound of formula 3, 3.0 mg/kg the compound of formula 3, 10.0 mg/kg the compound of formula 3 (FIG. 2A,2B), 1.0 mg/kg the compound of formula 4, 3.0 mg/kg the compound of formula 4, 10.0 mg/kg the compound of formula 4 (FIG. 3A/3B), 0.3 mg/kg the compound of formula 6, 1.0 mg/kg the compound of formula 6, 3.0 mg/kg, 10.0 mg/kg the compound of formula 6 (FIG. 4A/4B). The blood pressure and heart rate was monitored before and after application of placebo or the compounds.

[3] = test system: established Bleomycin-induced skin fibrosis; assay: Established bleomycin-induced skin fibrosis, therapeutic dose-regimen (Example B); format: in vivo; conditions: result in words; bleomycin-induced SSc in mice, therapeutic dose-regimen after established fibrosis
Description: Local skin fibrosis was induced in 6-week-old, pathogen-free, female DBA/2 mice (Charles River, Sulzfeld, Germany) by repeated (every other day) subcutaneous injections of bleomycin (0.5 mg/ml in saline) in a defined area of the upper back. Control mice were injected in the same manner with saline only. For all groups the injection volume was 100 μl. The study comprises 4 arms with • a) mice receiving saline injection for 6 weeks (serving as reference) • b) mice receiving Bleomycin injection for 6 weeks • c) mice receiving Bleomycin injection for 6 weeks and additional treatment with the compound of formula 27 (3 mg/kg) twice a day via gavage for the last 3 weeks • d) mice receiving the first 3 weeks bleomycin injections and the second 3 weeks saline injection.
After 6 weeks the animals were sacrificed and skin samples were obtained for analysis.
(§1) Histological analysis, hydroxyproline assay and immunohistochemistry for α-smooth muscle actin were performed as described in the Example 1 section.

[4] = test system: Tsk-1 mice; assay: Tight skin (Tsk-1) mouse model of systemic sclerosis (Example C); format: in vivo; conditions: result in words; TSK mice with established fibrosis before start of treatment
Description: In addition to the mouse model of bleomycin-induced dermal fibrosis, the tight-skin (Tsk-1) mouse model of systemic sclerosis was used to evaluate the anti-fibrotic potential of test drugs. Due to a dominant mutation in fibrillin-1, the phenotype of Tsk-1 is characterized by an increased hypodermal thickness. Genotyping of Tsk-1 mice was performed by PCR with the following primers: mutated fibrillin-1/Tsk-1 forward primer: 5′-[…]-3′, reverse primer: 5′-[…]-3′. Tsk-1 mice were treated daily with test drug or vehicle, respectively, by oral gavage. In addition, a group of corresponding wild type(pa/pa) mice was treated with vehicle. The treatment was started at an age of five weeks. After five weeks of treatment, mice were sacrificed by cervical dislocation and skin samples were obtained for analysis.
as §1

[5] = test system: human dermal fibroblasts; assay: TGFbeta-induced collagen gene expression and hydroxyproline deposition in human dermal fibroblasts (Example E); format: cell-based; conditions: result in words; human dermal fibroblasts in vitro
Description: The effects of the compound of formula 27 and vardenafil as stand alone and in combination were analyzed in vitro in human dermal fibroblasts in vitro.

[6] = test system: Bleomycin-induced skin fibrosis; assay: Bleomycin-induced skin fibrosis, preventive dose-regimen (Example A); format: in vivo, mice; conditions: Table 2, 0.3 mg/kg

| SMILES | Collagen content ([1]; 1 mg/kg) [x-fold change] | Myofibroblast count ([1]; 1 mg/kg) [x-fold change] | Dermal thickness ([1]; 1 mg/kg) [x-fold change] | dermal thickness, hydroxyproline content of the skin and the number of dermal myofibroblasts [1] | haemodynamic profile (blood pressure and heart rate) [2] | other results |
| --- | --- | --- | --- | --- | --- | --- |
| COC(=O)N(C)c1c(N)nc(-c2nn(Cc3ccccc3F)c3ncccc23)nc1N [compound of formula 3, Methyl-4,6-diamino-2-[1-(2-fluorobenzyl)-1H-pyrazolo[3,4-b]pyridine-3-yl]-5-pyrimidinyl-(methyl)carbamate] | 1.38 | 2.55 | 1.38 | significantly reduced; also recorded: dose dependent and significant effects | did not or only moderately, change |  |
| Nc1nc(-c2nn(Cc3ccccc3F)c3ncccc23)ncc1C1CC1 [compound of formula 27, 3-(4-Amino-5-cyclopropylpyrimidin-2-yl)-1-(2-fluorobenzyl)-1H-pyrazolo[3,4-b]pyridine] |  |  |  | significantly reduced | did not or only moderately, change | dermal thickness, hydroxyproline content of the skin and the number of dermal myofibroblasts [3]: significantly reduced; dermal thickness, hydroxyproline content of the skin and the number of dermal myofibroblasts [4]: significantly reduced; TGFbeta-induced Collagen gene expression [5]: significantly blocked; TGFbeta-induced Hydroxyproline (HP) deposition [5]: significantly blocked |
| COC(=O)Nc1c(N)nc(-c2nn(Cc3ccccc3F)c3ncc(F)cc23)nc1N [compound of formula 6, Methyl-{4,6-diamino-2-[5-fluoro-1-(2-fluorobenzyl)-1H-pyrazolo[3,4-b]pyridine-3-yl]pyrimidine-5-yl}carbamate] | 1.28 | 2.05 | 1.24 | significantly reduced; also recorded: dose dependent and significant effects |  | Collagen content ([1]; 3 mg/kg): 1.20 x-fold change; Myofibroblast count ([1]; 3 mg/kg): 1.49 x-fold change; Dermal thickness ([1]; 3 mg/kg): 1.19 x-fold change; Collagen content ([6]; bleomycin + vehicle 1.56): 1.41 x-fold change; Myofibroblast count ([6]; bleomycin + vehicle 3.86): 3.13 x-fold change; Dermal thickness ([6]; vs vehicle-treated control, bleomycin + vehicle 1.71): 1.41 x-fold change |
| COC(=O)Nc1c(N)nc(-c2nn(Cc3ccccc3F)c3ncccc23)nc1N [compound of formula 4, Methyl-4,6-diamino-2-[1-(2-fluorobenzyl)-1H-pyrazolo[3,4-b]pyridine-3-yl]-5-pyrimidinyl-carbamate] |  |  |  |  | did not or only moderately, change |  |
| COC(=O)N(C)c1c(N)nc(-c2nn(Cc3ccccc3F)c3ncc(F)cc23)nc1N |  |  |  |  | did not or only moderately, change |  |
